Key:
Test in all cases: Biotinylated BACE020 peptide binding ELISA
[1] = target: T1, human BACE1 ECD mutant G291A (230) (Homo sapiens, UniProt P56817, G291A)
T1 construct: its extracellular domain (ECD) (residues 22-457) and a C-terminal His8 tag; His8 (C); made in house; host or cells: Chinese hamster ovary cells (transient, secreted)
Excerpt: (§1) Human BACE1 mutants were made in a pRK vector containing the BACE 1 signal peptide followed by its extracellular domain (ECD) (residues 22-457) and a C-terminal His8 tag (SEQ ID NO: 54). Mutations were made using the appropriate oligonucleotide using a QuikChange® II XL Site-Directed Mutagenesis kit (Agilent Technologies Stratagene Products, La Jolla, Calif.) and confirmed by DNA sequencing. Proteins were expressed transiently using Chinese hamster ovary cells growing in 1-liter fermenters and cultures were harvested after 2 weeks. Following centrifugation, mutant proteins from the medium were purified to homogeneity (>95% purity) by chromatography on Ni-NTA agarose (Qiagen, Valencia, Calif.). After washing with PBS containing 10 mM imidazole, proteins were eluted with PBS containing 200 mM imidazole and the eluate was pooled, concentrated using a Vivaspin 20 (Sartorius-stedim, Goettingen, Germany) and applied to a Superdex 200 10/300 GL column (GE Healthcare Bio-Sciences AB, Uppsala, Sweden) equilibrated in 20 mM HEPES pH 7.2, 150 mM NaCl. Protein peaks were collected, concentrated and protein concentration determined by A280.
(§2) Binding of biotinylated BACE020 to recombinant protein was determined by a 96-well plate assay. Maxisorp microtiter plates (Nalge Nunc International, Rochester, N.Y.) were coated overnight at 4° C. with 2 μg/ml BACE 1 mutant in 50 mM carbonate, pH 9.6. The coated wells were washed with buffer (PBS, 0.05% Polysorbate 20) and blocked with assay buffer (PBS, pH 7.4, 0.5% BSA, 0.05% Tween 20, 15 ppm Proclin) for 1 h at room temperature with gentle shaking. After blocking, various concentrations of C-terminal biotin tagged BACE020 peptide with a polyethylene glycol (PEG) spacer (Ac-[…]-(PEG)3-biotin (SEQ ID NO: 16); Ac-[…]-CONH—CH2—(CH2—CH2—O—)3—(CH2)3—NH-biotin (SEQ ID NO: 16)) diluted in assay buffer were added and plates were incubated for 1 h with gentle shaking at room temperature. After washing, the amount of peptide bound to the plate was detected by the addition of Streptavidin-Horseradish Peroxidase Conjugate (GE Healthcare, Piscataway, N.J.) followed by the addition of TMB/H2O2 substrate (KPL, Gaithersburg, Md.). The reaction was quenched with 1 M phosphoric acid and the A450 measured on a Molecular Devices SpectraMax Plus384 microplate reader. Concentrations to give half maximal effective concentration (EC50) were determined using a 4-parameter non-linear regression curve-fitting program with Kaleidagraph (Synergy Software, Reading, Pa.). […] Concentrations to give half maximal inhibition concentration (IC50) were determined using a 4-parameter non-linear regression curve-fitting program with Kaleidagraph.
(§3) The ability of biotinylated BACE020 to bind to BACE1 and mutants was determined using an ELISA assay. The fold decrease in binding affinity was determined as the relative EC50 values of EC50 (mut)/EC50 (WT), which are listed in Table 3.

[2] = target: T2, human BACE1 ECD mutant G74A (13) (Homo sapiens, UniProt P56817, G74A)
T2 construct: extracellular domain (ECD) (residues 22-457) and a C-terminal His8 tag; made in house; host or cells: Chinese hamster ovary cells (transient)
T2 sequence (P56817 22-457 G74A): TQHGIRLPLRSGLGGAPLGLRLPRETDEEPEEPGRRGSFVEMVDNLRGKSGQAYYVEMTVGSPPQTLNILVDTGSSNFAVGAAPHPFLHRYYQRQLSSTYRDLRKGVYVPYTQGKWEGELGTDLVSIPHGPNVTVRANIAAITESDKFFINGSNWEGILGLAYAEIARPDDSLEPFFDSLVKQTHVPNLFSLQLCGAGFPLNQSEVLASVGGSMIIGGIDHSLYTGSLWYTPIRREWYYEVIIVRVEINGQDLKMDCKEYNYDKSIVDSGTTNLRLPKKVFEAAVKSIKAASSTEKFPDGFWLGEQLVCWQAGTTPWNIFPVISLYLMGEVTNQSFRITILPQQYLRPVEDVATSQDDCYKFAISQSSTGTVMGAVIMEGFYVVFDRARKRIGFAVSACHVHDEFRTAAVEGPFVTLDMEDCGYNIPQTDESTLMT
Excerpt: as §1, §2, §3

[3] = target: T3, human BACE1 ECD mutant T293A (232) (Homo sapiens, UniProt P56817, T293A)
T3 construct: its extracellular domain (ECD) (residues 22-457) and a C-terminal His8 tag; His8 (C); made in house; host or cells: Chinese hamster ovary cells (transient, secreted)
T3 sequence (P56817 22-457 T293A): as the sequence (P56817 22-457 G74A) above, with A53G, T272A counted along it
Excerpt: as §1, §2, §3

[4] = target: T4, human BACE1 ECD mutant K168A (107) (Homo sapiens, UniProt P56817, K168A)
T4 construct: extracellular domain (ECD) (residues 22-457) and a C-terminal His8 tag; made in house; host or cells: Chinese hamster ovary cells (transient)
T4 sequence (P56817 22-457 K168A): as the sequence (P56817 22-457 G74A) above, with A53G, K147A counted along it
Excerpt: as §1, §2, §3

[5] = target: T5, human BACE1 ECD mutant Y132A (71) (Homo sapiens, UniProt P56817, Y132A)
T5 construct: extracellular domain (ECD) (residues 22-457) and a C-terminal His8 tag; made in house; host or cells: Chinese hamster ovary cells (transient)
T5 sequence (P56817 22-457 Y132A): as the sequence (P56817 22-457 G74A) above, with A53G, Y111A counted along it
Excerpt: as §1, §2, §3

[6] = target: T6, human BACE1 ECD mutant R189A (128) (Homo sapiens, UniProt P56817, R189A)
T6 construct: extracellular domain (ECD) (residues 22-457) and a C-terminal His8 tag; made in house; host or cells: Chinese hamster ovary cells (transient)
T6 sequence (P56817 22-457 R189A): as the sequence (P56817 22-457 G74A) above, with A53G, R168A counted along it
Excerpt: as §1, §2, §3

[7] = target: T7, human BACE1 ECD mutant D93A (32) (Homo sapiens, UniProt P56817, D93A)
T7 construct: extracellular domain (ECD) (residues 22-457) and a C-terminal His8 tag; made in house; host or cells: Chinese hamster ovary cells (transient)
T7 sequence (P56817 22-457 D93A): as the sequence (P56817 22-457 G74A) above, with A53G, D72A counted along it
Excerpt: as §1, §2, §3

[8] = target: T8, human BACE1 ECD mutant Q73A (12) (Homo sapiens, UniProt P56817, Q73A)
T8 construct: extracellular domain (ECD) (residues 22-457) and a C-terminal His8 tag; made in house; host or cells: Chinese hamster ovary cells (transient)
T8 sequence (P56817 22-457 Q73A): as the sequence (P56817 22-457 G74A) above, with Q52A, A53G counted along it
Excerpt: as §1, §2, §3

[9] = target: T9, human BACE1 ECD mutant L91A (30) (Homo sapiens, UniProt P56817, L91A)
T9 construct: extracellular domain (ECD) (residues 22-457) and a C-terminal His8 tag; made in house; host or cells: Chinese hamster ovary cells (transient)
T9 sequence (P56817 22-457 L91A): as the sequence (P56817 22-457 G74A) above, with A53G, L70A counted along it
Excerpt: as §1, §2, §3

[10] = target: T10, human BACE1 ECD mutant T133A (72) (Homo sapiens, UniProt P56817, T133A)
T10 construct: extracellular domain (ECD) (residues 22-457) and a C-terminal His8 tag; made in house; host or cells: Chinese hamster ovary cells (transient)
T10 sequence (P56817 22-457 T133A): as the sequence (P56817 22-457 G74A) above, with A53G, T112A counted along it
Excerpt: as §1, §2, §3

[11] = target: T11, human BACE1 ECD mutant W176A (115) (Homo sapiens, UniProt P56817, W176A)
T11 construct: extracellular domain (ECD) (residues 22-457) and a C-terminal His8 tag; made in house; host or cells: Chinese hamster ovary cells (transient)
T11 sequence (P56817 22-457 W176A): as the sequence (P56817 22-457 G74A) above, with A53G, W155A counted along it
Excerpt: as §1, §2, §3

[12] = target: T12, human BACE1 ECD mutant T390A (329) (Homo sapiens, UniProt P56817, T390A)
T12 construct: its extracellular domain (ECD) (residues 22-457) and a C-terminal His8 tag; His8 (C); made in house; host or cells: Chinese hamster ovary cells (transient, secreted)
T12 sequence (P56817 22-457 T390A): as the sequence (P56817 22-457 G74A) above, with A53G, T369A counted along it
Excerpt: as §1, §2, §3

[13] = target: T13, human BACE1 ECD mutant K382A (321) (Homo sapiens, UniProt P56817, K382A)
T13 construct: its extracellular domain (ECD) (residues 22-457) and a C-terminal His8 tag; His8 (C); made in house; host or cells: Chinese hamster ovary cells (transient, secreted)
T13 sequence (P56817 22-457 K382A): as the sequence (P56817 22-457 G74A) above, with A53G, K361A counted along it
Excerpt: as §1, §2, §3

[14] = target: T14, human BACE1 ECD mutant Q134A (73) (Homo sapiens, UniProt P56817, Q134A)
T14 construct: extracellular domain (ECD) (residues 22-457) and a C-terminal His8 tag; made in house; host or cells: Chinese hamster ovary cells (transient)
T14 sequence (P56817 22-457 Q134A): as the sequence (P56817 22-457 G74A) above, with A53G, Q113A counted along it
Excerpt: as §1, §2, §3

[15] = target: T15, human BACE1 ECD mutant 1I79A (118) (Homo sapiens, UniProt P56817, I179A)
T15 construct: extracellular domain (ECD) (residues 22-457) and a C-terminal His8 tag; made in house; host or cells: Chinese hamster ovary cells (transient)
T15 sequence (P56817 22-457 I179A): as the sequence (P56817 22-457 G74A) above, with A53G, I158A counted along it
Excerpt: as §1, §2, §3

[16] = target: T16, human BACE1 ECD mutant S96A (35) (Homo sapiens, UniProt P56817, S96A)
T16 construct: extracellular domain (ECD) (residues 22-457) and a C-terminal His8 tag; made in house; host or cells: Chinese hamster ovary cells (transient)
T16 sequence (P56817 22-457 S96A): as the sequence (P56817 22-457 G74A) above, with A53G, S75A counted along it
Excerpt: as §1, §2, §3

[17] = target: T17, human BACE1 ECD mutant F169A (108) (Homo sapiens, UniProt P56817, F169A)
T17 construct: extracellular domain (ECD) (residues 22-457) and a C-terminal His8 tag; made in house; host or cells: Chinese hamster ovary cells (transient)
T17 sequence (P56817 22-457 F169A): as the sequence (P56817 22-457 G74A) above, with A53G, F148A counted along it
Excerpt: as §1, §2, §3

[18] = target: T18, human BACE1 ECD mutant I171A (110) (Homo sapiens, UniProt P56817, I171A)
T18 construct: extracellular domain (ECD) (residues 22-457) and a C-terminal His8 tag; made in house; host or cells: Chinese hamster ovary cells (transient)
T18 sequence (P56817 22-457 I171A): as the sequence (P56817 22-457 G74A) above, with A53G, I150A counted along it
Excerpt: as §1, §2, §3

[19] = target: T19, human BACE1 ECD mutant N294A (233) (Homo sapiens, UniProt P56817, N294A)
T19 construct: its extracellular domain (ECD) (residues 22-457) and a C-terminal His8 tag; His8 (C); made in house; host or cells: Chinese hamster ovary cells (transient, secreted)
T19 sequence (P56817 22-457 N294A): as the sequence (P56817 22-457 G74A) above, with A53G, N273A counted along it
Excerpt: as §1, §2, §3

[20] = target: T20, human BACE1 ECD mutant G72A (11) (Homo sapiens, UniProt P56817, G72A)
T20 construct: extracellular domain (ECD) (residues 22-457) and a C-terminal His8 tag; made in house; host or cells: Chinese hamster ovary cells (transient)
T20 sequence (P56817 22-457 G72A): as the sequence (P56817 22-457 G74A) above, with G51A, A53G counted along it
Excerpt: as §1, §2, §3

[21] = target: T21, human BACE1 ECD mutant D289A (228) (Homo sapiens, UniProt P56817, D289A)
T21 construct: extracellular domain (ECD) (residues 22-457) and a C-terminal His8 tag; made in house; host or cells: Chinese hamster ovary cells (transient)
T21 sequence (P56817 22-457 D289A): as the sequence (P56817 22-457 G74A) above, with A53G, D268A counted along it
Excerpt: as §1, §2, §3

[22] = target: T22, human BACE1 ECD mutant K285A (224) (Homo sapiens, UniProt P56817, K285A)
T22 construct: extracellular domain (ECD) (residues 22-457) and a C-terminal His8 tag; made in house; host or cells: Chinese hamster ovary cells (transient)
T22 sequence (P56817 22-457 K285A): as the sequence (P56817 22-457 G74A) above, with A53G, K264A counted along it
Excerpt: as §1, §2, §3

[23] = target: T23, human BACE1 ECD mutant R296A (235) (Homo sapiens, UniProt P56817, R296A)
T23 construct: its extracellular domain (ECD) (residues 22-457) and a C-terminal His8 tag; His8 (C); made in house; host or cells: Chinese hamster ovary cells (transient, secreted)
T23 sequence (P56817 22-457 R296A): as the sequence (P56817 22-457 G74A) above, with A53G, R275A counted along it
Excerpt: as §1, §2, §3

[24] = target: T24, human BACE1 ECD mutant T292A (231) (Homo sapiens, UniProt P56817, T292A)
T24 construct: its extracellular domain (ECD) (residues 22-457) and a C-terminal His8 tag; His8 (C); made in house; host or cells: Chinese hamster ovary cells (transient, secreted)
T24 sequence (P56817 22-457 T292A): as the sequence (P56817 22-457 G74A) above, with A53G, T271A counted along it
Excerpt: as §1, §2, §3

human BACE1 ECD WT = target: T25, human BACE1 ECD WT (Homo sapiens, UniProt P56817)
T25 construct: extracellular domain (ECD) (residues 22-457) and a C-terminal His8 tag; made in house; host or cells: Chinese hamster ovary cells (transient)
T25 sequence (P56817 22-457): as the sequence (P56817 22-457 G74A) above, with A53G counted along it
Excerpt: as §1, §2, §3

T1 sequence (P56817 22-457 G291A): as the sequence (P56817 22-457 G74A) above, with A53G, G270A counted along it

Question: What does the source list for “Ac-NEESMYCRLLGIGCG-(PEG)3-biotin [Biotinylated BACE020]”?
Answer: Fold Decrease in Binding EC50 (Mut)/EC50 (WT) [1]: 0.8; Fold Decrease in Binding EC50 (Mut)/EC50 (WT) [2]: 488.0; Fold Decrease in Binding EC50 (Mut)/EC50 (WT) [3]: 349.0; Fold Decrease in Binding EC50 (Mut)/EC50 (WT) [4]: 1.0; Fold Decrease in Binding EC50 (Mut)/EC50 (WT) [5]: 72.2; Fold Decrease in Binding EC50 (Mut)/EC50 (WT) [6]: 2.7; Fold Decrease in Binding EC50 (Mut)/EC50 (WT) [7]: 568.0; Fold Decrease in Binding EC50 (Mut)/EC50 (WT) [8]: 1.7; Fold Decrease in Binding EC50 (Mut)/EC50 (WT) [9]: 1.0; Fold Decrease in Binding EC50 (Mut)/EC50 (WT) [10]: 1.1; Fold Decrease in Binding EC50 (Mut)/EC50 (WT) [11]: 690.0; Fold Decrease in Binding EC50 (Mut)/EC50 (WT) [12]: 0.9; Fold Decrease in Binding EC50 (Mut)/EC50 (WT) [13]: 4.5; Fold Decrease in Binding EC50 (Mut)/EC50 (WT) [14]: 1990.0; Fold Decrease in Binding EC50 (Mut)/EC50 (WT) [15]: 2.6; Fold Decrease in Binding EC50 (Mut)/EC50 (WT) [16]: 1.0; Fold Decrease in Binding EC50 (Mut)/EC50 (WT) [17]: 1.9; Fold Decrease in Binding EC50 (Mut)/EC50 (WT) [18]: 1020.0; Fold Decrease in Binding EC50 (Mut)/EC50 (WT) [19]: 2.4; Fold Decrease in Binding EC50 (Mut)/EC50 (WT) [20]: 6.5; Fold Decrease in Binding EC50 (Mut)/EC50 (WT) [21]: 2210.0; Fold Decrease in Binding EC50 (Mut)/EC50 (WT) [22]: 4.0; Fold Decrease in Binding EC50 (Mut)/EC50 (WT) [23]: 70.9; Fold Decrease in Binding EC50 (Mut)/EC50 (WT) [24]: 73.6; Fold Decrease in Binding EC50 (Mut)/EC50 (WT) (human BACE1 ECD WT): 1.0

— patent US9624269B2, “Peptide inhibitors of BACE1” (GENENTECH, INC., priority 2011, dated 2017)
